Test [1] concerns E. coli DH10B pBC SK blaPDC-3 E221K. The experiment in a line: MIC, MH agar dilution (CLSI). As to conditions: for MIC: Escherichia coli. It counts as cell-based, Escherichia coli. As to the method: (§1) Variant genes were synthesized into the pBC SK (-) vector by Celtek Bioscience (Franklin, TN). Mueller-Hinton (MH) agar-dilution MIC measurements were performed against isogenic transformants producing PDC-3 and nine variants of PDC-3 in pBC SK (-) according to the Clinical and Laboratory Standards Institute (CLSI) guidelines as previously described ([39], [48]). Avibactam, LP-06, and S02030 were tested at a constant 4 µg/ml in combination with various concentrations of ceftazidime. Piperacillin-tazobactam was maintained at a ratio of 8 piperacillin to 1 tazobactam. Ceftolozane-tazobactam was maintained at a ratio of 2 ceftolozane to 1 tazobactam. The MICs are reported as the concentrations at which bacterial growth was no longer observed. All MIC measurements were performed at least three times.
(In general: In agar dilution, organisms are placed on agar that contains the substance at set levels.)

Test [2] concerns E. coli DH10B pBC SK blaPDC-3 E221G. The experiment in a line: MIC, MH agar dilution (CLSI). It counts as cell-based. As to conditions: Escherichia coli, β-lactam alone. The method, then:
as §1

For test [3], the system named is E. coli DH10B pBC SK blaPDC-1. Put plainly: MIC, MH agar dilution (CLSI). It is filed as cell-based. As to conditions: Escherichia coli, β-lactam alone. As to the method: as §1
The test system of test [4] is E. coli DH10B pBC SK blaPDC-3. The experiment in a line: MIC, MH agar dilution (CLSI). It counts as cell-based. The settings on record: Escherichia coli. As to the method: as §1
The subject of test [5] is E. coli DH10B pBC SK blaPDC-3 E221A. Put plainly: MIC, MH agar dilution (CLSI). It counts as cell-based. As to conditions: Escherichia coli; β-lactam alone; E. coli DH10B pBC SK blaPDC-3 E221A (Table 2 prints E221). As to the method:
as §1

The subject of test [6] is E. coli DH10B pBC SK blaPDC-3 V213A. Put plainly: MIC, MH agar dilution (CLSI). The settings on record: Escherichia coli, β-lactam alone. It counts as cell-based. As to the method: as §1
Test [7] deals with P. aeruginosa PAO1. Put plainly: MIC, MH agar dilution (CLSI). It counts as cell-based. As to conditions: Pseudomonas aeruginosa; β-lactam alone; P. aeruginosa PAO1, control strain expressing PDC-1. The method, then: as §1
Test [8] has as its system E. coli DH10B pBC SK blaPDC-3 V213G. Put plainly: MIC, MH agar dilution (CLSI). It counts as cell-based. As to conditions: Escherichia coli, β-lactam alone. As to the method:
as §1

Test [9] concerns E. coli DH10B pBC SK. The experiment in a line: MIC, MH agar dilution (CLSI). It is filed as cell-based. The settings on record: Escherichia coli, DH10BPBCSK, β-lactam alone. As to the method: as §1
In test [10] the test system is E. coli DH10B pBC SK blaPDC-3 Y223A. Put plainly: MIC, MH agar dilution (CLSI). It is filed as cell-based. The settings on record: Escherichia coli, β-lactam alone. As to the method:
as §1

The subject of test [11] is P. aeruginosa 18SH. Put plainly: MIC, MH agar dilution (CLSI). It is filed as cell-based. The settings on record: Pseudomonas aeruginosa, β-lactam alone, control strain expressing PDC-3. The method, then:
as §1

Test [12] deals with E. coli DH10B pBC SK blaPDC-3 G216R. The experiment in a line: MIC, MH agar dilution (CLSI). It is filed as cell-based. The settings on record: Escherichia coli, β-lactam alone. As to the method: as §1
Test [13] deals with E. coli DH10B. The experiment in a line: MIC, MH agar dilution (CLSI). It counts as cell-based. As to conditions: Escherichia coli, β-lactam alone. As to the method:
as §1

Test [14] relates to E. coli DH10B pBC SK blaPDC-3 Y223H. The experiment in a line: MIC, MH agar dilution (CLSI). It counts as cell-based. As to conditions: Escherichia coli, β-lactam alone. The method, then: as §1
Test [15] concerns E. coli DH10B pBC SK blaPDC-3 G216A. Put plainly: MIC, MH agar dilution (CLSI). It is filed as cell-based. As to conditions: Escherichia coli; β-lactam alone; E. coli DH10B pBC SK blaPDC-3 G216A (Table 2 prints G216). As to the method:
as §1

The target of test [16] is T1, E221K variant of PDC-3 β-lactamase (Pseudomonas aeruginosa, UniProt P24735, E247K/T105A).
T1 construct: produces the corresponding PDC-3 protein without its signal peptide; made in house; host or cells: E. coli Origami 2 DE3, pET24a (+) blaPDC-3-E221K
Put plainly: Steady-state hydrolysis kinetics. It counts as biochemical. The settings on record: substrate hydrolysis by E221K; 10 mM PBS pH 7.4, room temperature. The method, then:
Steady-state kinetic and inhibitor parameters were determined by using an Agilent 8453 diode array spectrophotometer at room temperature as previously described ([20], [43], [49]). Each assay was performed in 10 mM phosphate-buffered saline (PBS) at pH 7.4 at room temperature (RT = ∼25°C) in a quartz cuvette with a 1-cm path length. Measurements were obtained using ceftolozane and ceftazidime. The kinetic parameters, Vmax and Km, were obtained with a nonlinear least-squares fit of the data (Henri Michaelis-Menten, equation 1) using Origin 7.5VR (OriginLab, Northampton, MA).(1) v=Vmax [S]/Km+[S]

In test [17] the target is T2, PDC-3 β-lactamase (Pseudomonas aeruginosa, UniProt P24735, T105A).
T2 construct: produces the corresponding PDC-3 protein without its signal peptide; made in house; host or cells: E. coli Origami 2 DE3, pET24a (+) blaPDC-3
The experiment in a line: Competitive inhibition assay with nitrocefin as reporter substrate (Ki app). It counts as biochemical. The method, then:
For competitive inhibition assays used to determine Ki app, 150 μM nitrocefin was used as the reporter substrate with increasing concentrations of ceftazidime or ceftolozane. Initial velocities were plotted against concentrations of ceftazidime or ceftolozane. Ki app obs were determined by dividing the slope by the y intercept. Ki app was calculated by correcting Ki app obs for nitrocefin affinity and concentration (equation 3). (3) Ki app=Ki app obs/[1+([NCF]/Km NCF)

Test [18] relates to E. coli DH10B strains expressing PDC-3 variants. The experiment in a line: MIC, MH agar dilution (CLSI), variant strains taken together. It is filed as cell-based, Escherichia coli. As to the method: as §1
[19] abbreviates: β-lactam alone, E. coli DH10B pBC SK blaPDC-3 E221K, read-out: MIC value.
The mark [20] stands for this setting: β-lactam alone, E. coli DH10B pBC SK blaPDC-3, read-out: MIC value.
Setting [21] is: read-out: MIC value, β-lactam alone, E. coli DH10B pBC SK blaPDC-3.

Read-outs that look alike come from different tables or passages of the source.

Take `CC1(C)S[C@@H]2[C@H](NC(=O)[C@H](N)c3ccccc3)C(=O)N2[C@H]1C(=O)O` [Ampicillin]: the MIC (usually the lowest concentration that inhibits growth of the organism) in [1] (setting [19]) turned out to be 256 µg/mL; in [2], 512 µg/mL; in test [3] it was 256 µg/mL; in test [4] (setting [20]), 256 µg/mL; in test [5], 1020 µg/mL; in test [6] it was 1020 µg/mL. Also, the MIC was determined as 2050 µg/mL in [7]; 1020 µg/mL in [8]; 4 µg/mL in test [9]; 256 µg/mL in [10]; 4100 µg/mL in [11]; 1020 µg/mL in test [12]. The results for the MIC in test [13], in test [14] and in test [15] were 4 µg/mL, 512 µg/mL and 1020 µg/mL, respectively.
Regarding `C[C@H]1[C@H](NC(=O)/C(=N\OC(C)(C)C(=O)O)c2csc(N)n2)C(=O)N1S(=O)(=O)O` [Aztreonam], the MIC in test [1] (read-out: MIC value) worked out at 8 µg/mL; in test [2] it was 4 µg/mL; in test [3], 0.5 µg/mL; in test [4] (setting [21]), 1 µg/mL; in [5] it was 4 µg/mL; in test [6], 8 µg/mL. Also, the MIC was determined as 4 µg/mL in test [7]; 8 µg/mL in [8]; 0.125 µg/mL in test [9]; 4 µg/mL in test [10]; 128 µg/mL in test [11]; 16 µg/mL in test [12]. Further, the results for the MIC in test [13], in [14] and in test [15] were 0.125 µg/mL, 4 µg/mL and 8 µg/mL, respectively.
Take `CO/N=C(\C(=O)N[C@@H]1C(=O)N2C(C(=O)[O-])=C(C[N+]3(C)CCCC3)CS[C@H]12)c1csc(N)n1` [Cefepime]: the MIC in test [1] (read-out: MIC value) was 0.25 µg/mL; in test [2], 0.125 µg/mL; in [3] it was 0.125 µg/mL; in test [4] (setting [21]), at most 0.06 µg/mL; in test [5] it was 0.125 µg/mL; in test [6] it was 0.125 µg/mL. For the same compound, the MIC is 4 µg/mL in [7]; 0.125 µg/mL in test [8]; below 0.06 µg/mL in [9]; 0.25 µg/mL in [10]; 128 µg/mL in test [11]; 0.25 µg/mL in [12]. For the same compound, the MIC in [13], in [14] and in test [15] was 0.125 µg/mL each time.
`CO/N=C(\C(=O)N[C@@H]1C(=O)N2C(C(=O)O)=C(COC(C)=O)CS[C@H]12)c1csc(N)n1` [Cefotaxime]: the minimal inhibitory concentration (MIC) was determined as 4 µg/mL in test [1] (read-out: MIC value); 8 µg/mL in test [2]; 8 µg/mL in [3]; 8 µg/mL in test [4] (setting [21]); 16 µg/mL in test [5]; 16 µg/mL in test [6]. Moreover, the MIC in test [7] was 16 µg/mL; in test [8] it was 16 µg/mL; in test [9], below 0.06 µg/mL; in test [10], 16 µg/mL; in test [11] it was above 256 µg/mL; in test [12], 16 µg/mL. Besides, the MIC in test [13] was below 0.06 µg/mL; in test [14] it was 8 µg/mL; in test [15] it was 8 µg/mL.
`Cn1c(N)c(NC(=O)NCCN)c[n+]1CC1=C(C(=O)O)N2C(=O)[C@@H](NC(=O)/C(=N\OC(C)(C)C(=O)[O-])c3nsc(N)n3)[C@H]2SC1` [Ceftolozane]: the “fold increase in MIC relative to the wild-type strain” value in test [1] (E221K variant strain versus PDC-3 strain, E. coli DH10B) was found to be 128 fold. Further, the MIC worked out at 64 µg/mL in test [1] (read-out: MIC value); 64 µM in [1] (read-out: ceftolozane MIC); 16 µg/mL in [2]; 0.5 µg/mL in test [3]; 0.5 µg/mL in test [4] (setting [21]); 0.5 µM in test [4] (read-out: ceftolozane MIC, PDC-3 strain, Table 2). For the same compound, the MIC in test [5] worked out at 2 µg/mL; in [6], 4 µg/mL; in test [7], 0.5 µg/mL; in [8] it was 4 µg/mL; in test [9] it was 0.5 µg/mL; in test [10] it was 32 µg/mL. The MIC was 8 µg/mL in test [11]; 8 µg/mL in test [12]; 0.5 µg/mL in test [13]; 8 µg/mL in test [14]; 2 µg/mL in test [15]. Also, the Michaelis constant (Km) (usually the substrate concentration at which the rate is half of its maximum) in [16] was determined as 341 ± 64 µM. In addition, the Vmax (in general, the top rate of the reaction or transport when substrate is in excess) in test [16] came out at 1.0 ± 0.1 µM/s. Besides, in [16], the kcat (in general, the number of substrate molecules converted per active site and unit of time at saturation) stood at 10 ± 1 s⁻¹. The Ki in test [17] (150 μM nitrocefin reporter substrate) worked out at 1.3 mM. Besides, in test [17] (ceftolozane Ki app higher than ceftazidime Ki app), the “fold difference in Ki app between ceftolozane and ceftazidime” value stood at 60 fold. Besides, in [18] (oxyimino cephalosporin paired with avibactam), the “MICs when paired with avibactam” value was at most 1 mg/L.
`C[C@@H](O)[C@H]1C(=O)N2C(C(=O)O)=C(SCCN=CN)C[C@H]12` [Imipenem]: the minimal inhibitory concentration (MIC) in test [1] (read-out: MIC value) was found to be 0.5 µg/mL; in test [2] it was 0.5 µg/mL; in [3], 0.25 µg/mL; in [4] (setting [21]), 0.25 µg/mL; in test [5] it was 0.5 µg/mL; in test [6] it was 0.5 µg/mL. Further, the MIC in [7] came to 2 µg/mL; in [8], 0.5 µg/mL; in test [9] it was 0.25 µg/mL; in test [10], 0.5 µg/mL; in [11] it was 2 µg/mL; in test [12], 0.5 µg/mL. The MIC in [14] and in test [15] was 0.5 µg/mL in each case.
Consider `CCN1CCN(C(=O)N[C@@H](C(=O)N[C@@H]2C(=O)N3[C@@H]2SC(C)(C)[C@@H]3C(=O)O)c2ccccc2)C(=O)C1=O` [Piperacillin], for which the MIC stood at 16 µg/mL in [1] (setting [19]); 64 µg/mL in test [2]; 16 µg/mL in test [3]; 16 µg/mL in test [4] (setting [20]); 128 µg/mL in test [5]; 64 µg/mL in test [6]. The MIC in test [7] was 4 µg/mL; in [8] it was 64 µg/mL; in test [9], 2 µg/mL; in [10], 16 µg/mL; in [11], 512 µg/mL; in test [12], 16 µg/mL. The MIC in [13] is 2 µg/mL; in [14], 32 µg/mL; in [15], 64 µg/mL.
`C[C@]1(Cn2ccnn2)[C@H](C(=O)O)N2C(=O)C[C@H]2S1(=O)=O` [tazobactam]: the “fold attenuation of variant strain MICs compared to single antibiotic” value in [18] (piperacillin-tazobactam and ceftolozane-tazobactam combinations) is recorded as 2- to 8 fold.
